The source of these data is patent publication US5789387A (priority 1996, dated 1998).

One data set has as its system Coccidioides immitis. The conditions noted are these: in vitro, literature; cited from earlier work.
In data set [1] the test system is Candida albicans. The conditions noted are these: in vitro; prolonged exposure; literature; cited from earlier work.
Data set [2] deals with Candida albicans. The conditions noted are these: cited from earlier work.
The next data set relates to C. albicans. The note with it: subcutaneous, high concentrations; cited from earlier work.
Another data set concerns Candida albicans B311. Briefly: prevention of mortality in rats infected with lethal doses of Candida albicans, continuous intravenous infusion. The class given is in vivo, rat infected with Candida albicans B311. The method, then: (§1) Candida albicans strain B311 (originally obtained from H. Hasenclever, National Institutes of Health, Bethesda, Md.) was employed in the following examples. For growth of yeast inocula, frozen culture aliquots were inoculated into 2% glucose, 1% yeast extract broth and grown at 35° C. with shaking until the culture entered the early log phase of growth. Yeast were collected by centrifugation, washed, and adjusted to the appropriate concentration in sterile phosphate-buffered saline (PBS).
Using methods similar to those described above, rats were infected intravenously with a higher inoculum level; i.e., 3.2×10^6 cfu/rat, to induce mortalities. Fourteen hours after infection, treatment by continuous infusion was initiated with nikkomycin Z administered continuously at 330 mg/kg/day; control animals were treated with vehicle. Treatment was continued for 96 h, then animals were held for a total of 28 days for observation of mortalities.
Experiments similar to those described above in this Section were performed to determine the effect of low doses of nikkomycin Z in preventing mortality in animals infected with Candida albicans. Using methods similar to those described above, rats were infected intravenously with 1.05×10^7 cfu/rat of C. albicans B311, a dose that would normally rapidly induce mortalities. The inoculum and the subsequent drug treatment was administered via an indwelling catheter placed in the jugular vein. For the experiment, therapy was initiated 14 h after infection with yeast and nikkomycin Z was administered continuously at 33 or 100 mg/kg/day; control animals were treated with vehicle. All animals were treated continuously for 96 h, with test solutions delivered from syringes using infusion pumps. Syringes and solutions were changed daily. Animals were held for a total of 30 days for observation of mortalities.

In the next data set the test system is chitin synthase. The conditions noted are these: in words; cited from earlier work.
Data set [3] deals with Candida albicans strain B311. Briefly: quantitative recovery of viable yeast from kidneys in rat model of systemic candidiasis, continuous intravenous infusion. The conditions noted are these: for decrease in viable yeast per gram of tissue / Geometric mean log10 CFU/gm ± S.E.M. (kidney): 96 h; for Geometric mean log10 CFU/gm ± S.E.M. (kidney): inoculum 1×10^6 cfu/rat. The class given is in vivo. The method, then:
as §1
A rat model of systemic candidiasis was used to assess the effect of nikkomycin Z in vivo. […] The inoculum and the subsequent drug treatment was administered via an indwelling catheter placed in the jugular vein that was "tunneled" out the back and placed inside a protective, flexible, metal sheath. For both experiments, therapy was initiated 12-14 h after infection with nikkomycin Z (formulated in a vehicle of 2% dimethylsulfoxide (DMSO)/ 98% dextrose (5%)) administered continuously at 330 mg/kg/day; control animals were treated with vehicle. In the first experiment, animals were treated continuously for 72 h. In the second experiment, animals were treated continuously for 96 h. Drug and vehicle were administered continuously at a volume of one ml per hour. At 7 or 9 h after cessation of treatment, respectively, all animals were euthanized for the removal of kidneys, which were cultured for the quantitative recovery of viable yeast. From each animal, the two kidneys were placed into tared, sterile tubes (one tube per animal, i.e., two kidneys per tube) containing ten ml of sterile PBS. The kidneys were then weighed and the tube contents homogenized. Organ homogenates were diluted in serial fashion and cultured on Sabourauds agar plates containing 50 μg/ml chloramphenicol for the quantitative recovery of viable yeast. The plates were incubated overnight at room temperature and colonies enumerated. Calculations were made to determine the log10 cfu's per gram of tissue for each animal.
Experiments similar to those described above were performed to determine the effectiveness of low doses of Nikkomycin Z in reducing the yeast load in organs of infected animals in the rat model of systemic candidiasis. Experimental details such as yeast used, growth conditions, rats used, and methods of inoculation and drug delivery were as described above in Sections 6.1 and 6.2. Inoculum levels were 1×10^6 cfu/rat. Therapy was initiated 14 h after yeast infection and nikkomycin Z was administered continuously at either 33 or 100 mg/kg/day for a total of 96 h; control animals were treated with vehicle. Test solutions were delivered from syringes using infusion pumps; syringes and solutions were changed daily. After cessation of treatment, all animals were euthanized for the removal of kidneys, which were cultured for the quantitative recovery of viable yeast. Organ removal and culture were done as above. Organ homogenates were cultured on Sabourauds agar and incubated overnight for the enumeration of yeasts as above.

The subject of a further data set is Candida. The conditions noted are these: subcutaneous injections beginning one hour after inoculation; cited from earlier work.
A short description of data set [4]: plasma concentration of nikkomycin Z following continuous intravenous administration, HPLC/SPE. The class given is in vivo, rat (outbred male albino, strain S/A). The method, then: The experimental animals were outbred male albino rats (strain S/A, Simonsen Laboratories, Gilroy, Calif.), 350-400 g average weight, housed one per cage, fed rodent chow and water ad libitum, and identified by ear tags. Rats receiving continuous intravenous administration of nikkomycin Z were cannulated in the left carotid artery and right jugular vein.
Continuous intravenous administration involved a 2 hour loading dose of 20 mg/kg/hour nikkomycin Z and then an infusion rate of 33 mg/kg/day over 24 hours. The formulation contained 1 mg/ml nikkomycin Z in sterile 5% dextrose. Blood samples of 1 ml were withdrawn at 0, 0.25, 0.5, 1, 2, 4, 6 and 12 h.
Nikkomycin Z was extracted from the plasma samples using solid phase extraction (SPE) columns. The SPE matrix was phenylboronate (PBA) which covalently binds nikkomycin Z at high pH. After washing with 20 mM sodium carbonate/bicarbonate alkaline buffer, nikkomycin Z was eluted from the extraction column with a 20 mM glycine solution at pH 1.2. Following a drying and reconstitution step, nikkomycin Z plasma concentration was determined using reverse phase HPLC. The plasma concentrations of nikkomycin Z derived from the HPLC analysis were plotted against time.

A further data set has as its system plants, fish, or mammals. The conditions noted are these: under reasonable doses; cited from earlier work.
The next data set concerns chitin synthesis. The conditions noted are these: subcutaneous, high concentrations; cited from earlier work.
Data set [5] deals with Candida albicans. The conditions noted are these: oral, 10-14 day period; cited from earlier work.
Data set [6] is described as follows: plasma levels after subcutaneous sustained release gel (PLURONIC F127) or single intravenous administration, HPLC. The class given is in vivo. The note with it: rat, single intravenous administration, read-out: mean residence time (MRT), nikkomycin Z total compounds.
Where [7] appears, read: bolus intravenous once daily, up to 20 days.

Entries after “also recorded” stand apart in the source; their conditions may differ.

On to `NC(=O)OC[C@H](O)[C@@H](O)[C@H](N)C(=O)N[C@H](C(=O)O)[C@H]1O[C@@H](n2cc(C(=O)O)c(=O)[nH]c2=O)[C@H](O)[C@@H]1O` [polyoxin D], for which the “concentration at which C. immitis is rapidly susceptible” value with Coccidioides immitis is 60 to 100 µM. In the data set with Candida albicans [1], the “effect on Candida cells (in words)” value is “exhibited a phenomenon called "chaining". Although deformed, these cells were able to survive several replications, though ultimately they became sensitive to osmotic pressures and would lyse”.
By Tmax is commonly meant the time at which the peak concentration occurs. As usually defined, the MRT is a mean duration of stay, worked out from the concentration-time curve. Consider `C[C@@H]([C@H](N)C(=O)N[C@H](C(=O)O)[C@H]1O[C@@H](n2ccc(=O)[nH]c2=O)[C@H](O)[C@@H]1O)[C@H](O)c1ccc(O)cn1` [nikkomycin Z], for which the “efficacy as characterized by others” value in the data set with Candida albicans [2] (setting [7]) is “modest efficacy; also recorded: limited efficacy”. Besides, in the data set with Candida albicans [2] (setting [7]), the “mortality of infected mice” value is “a delay in the onset of mortalities in infected mice; also recorded: essentially all mice died shortly after cessation of therapy”. In addition, the “promotion of survival and reduction of fungal burden in kidneys (prior studies)” value in the data set with Candida albicans [2] (summary of earlier studies with reasonable delay between challenge and administration (oral, iv bolus, sc)) is “at best in a fungistatic fashion with only marginal activity in promoting survival and only limited ability to reduce the fungal burden in the kidneys”. Also, in the data set on C. albicans, the “numbers of yeasts in kidneys / efficacy” value is listed as “treatment did not result in any reduction in numbers of yeasts”. The survival result in the data set with Candida albicans B311 (33 mg/kg/day continuous infusion 96 h, inoculum 1.05×10^7 cfu/rat, 30 days observation) is “all animals receiving nikkomycin Z at either 33 or 100 mg/kg/day by continuous infusion survived the entire observation period; also recorded: complete protection of rats against a lethal challenge with Candida albicans”; in the data set on Candida albicans B311 (100 mg/kg/day continuous infusion 96 h, inoculum 1.05×10^7 cfu/rat, 30 days observation), “all animals receiving nikkomycin Z at either 33 or 100 mg/kg/day by continuous infusion survived the entire observation period”; in the data set on Candida albicans B311 (330 mg/kg/day continuous infusion 96 h, inoculum 3.2×10^6 cfu/rat, 28 days observation) it was “all animals receiving nikkomycin Z by continuous infusion survived the entire observation period”; in the data set with Candida albicans [5], “animals ultimately succumbed to infection”. Also, the “inhibition of chitin synthase” value with chitin synthase is listed as “potent inhibitor”. For the same compound, the “concentration at which C. immitis is rapidly susceptible” value in the data set with Coccidioides immitis was 60 to 100 µM. The “reduction of yeast load in organs (in words)” value in data set [3] (33 mg/kg/day continuous infusion, 96 h (4 days)) is on record as “sufficient to dramatically reduce the yeast load in organs of infected animals; also recorded: significantly reduce the yeast organ load”. Moreover, the “decrease in viable yeast per gram of tissue” value is recorded as “approximately 1 log10 units” in [3] (33 mg/kg/day) and roughly 2 log10 units in data set [3] (100 mg/kg/day). For the same compound, the results for the “Geometric mean log10 CFU/gm ± S.E.M. (kidney)” value in data set [3] (33 mg/kg/day) and in [3] (100 mg/kg/day) were 4.23 ± 0.15 log10 CFU/gm and 3.48 ± 0.15 log10 CFU/gm, respectively. In addition, the “Geometric mean log10 CFU/gm ± S.E.M. (kidney), Exp. 1” value in data set [3] (Exp. 1, 330 mg/kg/day continuous infusion over 72 h, inoculum 6.2×10^5 cfu/rat) is 3.09 ± .16 log10 CFU/gm. In data set [3] (Exp. 2, 330 mg/kg/day continuous infusion over 96 h, inoculum […]10^6 cfu/rat), the “Geometric mean log10 CFU/gm ± S.E.M. (kidney), Exp. 2” value is 3.73 ± .05 log10 CFU/gm. For the same compound, the “protection against experimental candidiasis” value with Candida is “some protection”. Also, the “steady state plasma concentration” value in data set [4] (infusion 33 mg/kg/day intravenous after loading dose, 33 mg/kg/day) is given as “about 170 ng/ml”. For the same compound, in data set [4] (rat, plasma, 2 hour loading dose of 20 mg/kg/h, then 33 mg/kg/day intravenous), the Tmax amounted to 60 min. Moreover, the Cmax in data set [4] (rat, plasma, 2 hour loading dose of 20 mg/kg/h, then 33 mg/kg/day intravenous, read-out: maximum plasma concentration) was roughly 6600 ng/mL. Moreover, in the data set with plants, fish, or mammals, the toxicity entry is listed as “no toxicity against plants, fish, or mammals under reasonable doses”. The “chitin synthesis in vivo” value in the data set with chitin synthesis was “depress chitin synthesis in vivo”. Also, the MRT in data set [6] worked out at 12 min.
